Results from PubChem BioAssay (NCI).
Values joined by “and” are separate entries in the source; they are usually repeats but may differ in a detail not shown here. Identical values can stand only once.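 Cultured in 96-well plates, cells were exposed to test compound for 48 hours across five concentrations. GI50 marks 50% less growth. TGI denotes the concentration required for complete inhibition of growth.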

Key:
Experiment in all cases: NCI anticancer screen, dose series, 48 h
A498 renal = tested on: A498 renal
HCT-15 colon = tested on: HCT-15 colon
HS 578T breast = tested on: HS 578T breast
MDA-MB-231 breast = tested on: MDA-MB-231 breast
RPMI-8226 leukemia = tested on: RPMI-8226 leukemia
SF-295 CNS = tested on: SF-295 CNS
SF-539 CNS = tested on: SF-539 CNS
SNB-75 CNS = tested on: SNB-75 CNS
UACC-62 melanoma = tested on: UACC-62 melanoma
UO-31 renal = tested on: UO-31 renal

Row | SMILES | GI50 (A498 renal) | TGI (A498 renal) | GI50 (HCT-15 colon) | TGI (HCT-15 colon) | GI50 (HS 578T breast) | TGI (HS 578T breast) | GI50 (MDA-MB-231 breast) | TGI (MDA-MB-231 breast) | GI50 (RPMI-8226 leukemia) | TGI (RPMI-8226 leukemia) | GI50 (SF-295 CNS) | TGI (SF-295 CNS) | GI50 (SF-539 CNS) | TGI (SF-539 CNS) | GI50 (SNB-75 CNS) | TGI (SNB-75 CNS) | GI50 (UACC-62 melanoma) | TGI (UACC-62 melanoma) | GI50 (UO-31 renal) | TGI (UO-31 renal)
1 | C=CC[P+](c1ccccc1)(c1ccccc1)c1ccccc1 | 7.09 µM | 63 µM | > 100 µM | > 100 µM | 10.1 µM | > 100 µM | 7.61 µM | > 100 µM | 0.675 µM | 32.2 µM | 4.58 µM | 28.2 µM | 8.42 µM | > 100 µM | 3.58 µM | 57.9 µM | 2.69 µM | > 100 µM | 84 µM | > 100 µM
2 | O=C(CF)N(O)c1ccc(/C=C/c2ccccc2)cc1 | 0.694 µM | 2.27 µM | 13.3 µM | > 100 µM | 24.1 µM | > 91.5 µM | 21.8 µM | > 100 µM | 21.3 µM | > 100 µM | 1.74 µM | 11.4 µM | 8.17 µM | 52.9 µM | 3.41 µM | 31.9 µM | 1.81 µM | 10.7 µM | 3.58 µM | 26.2 µM
3 | C/C(=C\C1=C(Cl)C(=O)c2ccccc2C1=O)C(=O)O | 21.9 µM | 36.3 µM | 18.2 µM | 36.5 µM | 30.3 µM | 69.3 µM | 18.6 µM | 33.8 µM | 20.2 µM | 46.5 µM | 19 µM | 33.4 µM | 17.7 µM | 31.9 µM | 21.5 µM | 35.9 µM | 17.2 µM | 31.5 µM | 15.5 µM | 28.9 µM
4 | COC(=O)[C@]12CC[C@@H](C)[C@H](C)[C@@H]1C1=CC[C@@H]3[C@@]4(C)C(C=O)=C[C@@](C)(COC(=O)c5ccco5)[C@@H]4C(=O)C[C@@]3(C)[C@]1(C)CC2 | 12.1 µM | 94.7 µM | 3.96 µM | > 100 µM | 9.68 µM | > 100 µM | 4.97 µM | > 100 µM | 2.06 µM | 6.68 µM | 3.99 µM | > 100 µM | 23 µM | > 100 µM | 4.24 µM | > 100 µM | 0.232 µM | 2.34 µM | 3.54 µM | > 100 µM
5 | C[C@@H]1CC[C@@H]2[C@@H]1[C@H](OC(=O)/C=C/c1ccccc1)[C@]1(C3CCCCC3)C[C@@H](NC(=O)CO)[C@@]2(C)O1 | 2.19 µM | 6.61 µM | 15.8 µM | 33.2 µM | 2.79 µM | 9.21 µM | 18.9 µM | 35.4 µM | 20.8 µM | 44.4 µM | 14.9 µM | 28.4 µM | 16.7 µM | 31.4 µM | 12.6 µM | 26.9 µM | 16.2 µM | 30.3 µM | 4.8 µM | 18.7 µM
6 | CN(C)CCOc1ccc(/C(=C(/CCCl)c2ccccc2)c2ccccc2)cc1 | 0.885 µM | 3.12 µM | 1.95 µM | 7.87 µM and 28.1 µM | 0.895 µM |  | 1.07 µM |  | 1.03 µM | 2.5 µM and 23.6 µM | 1.02 µM |  | 0.891 µM |  | 1.11 µM | 4.48 µM and 24.2 µM | 0.891 µM | 1.66 µM | 0.9 µM | 13.8 µM and 30.9 µM
7 | O=[N+]([O-])c1ccc2c(N3CCC(CCCC4CCN(c5ncnc6cc([N+](=O)[O-])ccc56)CC4)CC3)ncnc2c1 | 1.44 µM | > 100 µM | > 50.6 µM | > 100 µM | > 46.3 µM | > 100 µM | > 47.1 µM | > 100 µM | 0.388 µM | 96.9 µM | 5.53 µM | > 100 µM | > 47.9 µM | > 100 µM | > 39.6 µM | > 71.2 µM | > 33.4 µM | > 56.9 µM | 27.3 µM | > 100 µM
8 | O=C(O)CCC(=O)c1ccc2ccc3cccc4ccc1c2c34 |  | > 100 µM |  | > 100 µM |  | > 100 µM |  | > 100 µM |  | > 100 µM |  | > 100 µM |  | 68 µM |  | > 100 µM |  | > 100 µM |  | > 100 µM
